We go through three substances from patent publication US7871978B2, “Bone tropic peptides” (University of Virginia Patent Foundation, priority 2004, dated 2011).

Entries after “also recorded” stand apart in the source; their conditions may differ.

Experiment [1] concerns bone and marrow tissue sections (mouse femur, rib). In words: Biotinylated peptide binding to bone/marrow tissue sections, Avidin-FITC fluorescence. Details: key to Localization of peptide binding: Bone/Marrow (tissue sections): ✓: Check marks indicate positive binding observed with FITC; −: a dash indicates a negative result. The settings on record: for Localization of peptide binding: Bone/Marrow (tissue sections): FITC; for Binding to rib and long bone growth plate sections: biotinylated peptides, 1/50,000 dilution of Avidin-FITC. On the procedure: Methods: Four-week old Swiss Webster mice were euthanized; the femurs were excised and decalcified in 0.25M EDTA in PBS solution for 5 days, and washed in PBS for 24 hours. The femoral shafts were obtained by cutting off the proximal and distal ends of the femur. The femoral shafts were placed in Tissue-Tek O.C.T. Compound (Sukura Finetek, Torrance, Calif.) and frozen at −20° C. overnight. Sections were cut at 10 μm serially with a cryomicrotome, rinsed with 1% BSA in PBS three times. To block non-specific reaction sections were incubated with Avidin/Biotin Blocking Kit (Vector Laboratories, Inc. Burlingame, Calif.) according to the manufacturer's instructions. Following another rinse with PBS, 150 μl 10 mM solution of each biotinylated peptide (L1, L2, L7, R1, R8) was added to the slides and incubated for 1 hour at room temperature. In negative controls, only PBS was added. After rewashes with 1% BSA, 150 μl of 1:50,000 dilution of Avidin-FITC was added to each slide and incubated overnight at 4° C.
The sections were washed with 1% BSA in PBS and mounted with Vectashield (Vector Laboratories Inc., Burlingame, Calif.). Fluorescence was visualized using a Nikon eclipse E600 microscope (Nikon, Melville, N.Y.) equipped with a 535 nm wavelength fluorescein filter. Images were obtained using a Sony DKC-5000 digital camera (Sony Electronics Inc.) and processed with Adobe Photoshop software (Adobe Systems Incorporated, San Jose, Calif.).
(§1) For localization of peptide binding to cells and tissue sections, biotinylated peptides were synthesized. Fluorescein-isothiocyanate (FITC) labeled Avidin was used to localize the peptides on cells in culture and in tissue sections in vitro by epiluminescence microscopy. In addition, the biotinylated peptides were detected at concentrations as low as 1 μM in slot blots.
Cryosections of decalcified femurs harvested from 4 week BALB/c mice were incubated with biotinylated peptide and Avidin-FITC. […] The distribution of fluorescence throughout the marrow was uneven. […] In control slides incubated with PBS without peptide, none of the cells could be detected by fluorescence (not shown). […]

For experiment [2], the system named is bovine aortic endothelial cells. In words: Effect of peptides on adherent bovine aortic endothelial cells on fibronectin or collagen. The following applies: 0.1M biotinylated peptide, 1 hour; cells adhered four hours on fibronectin or collagen. In kind it is cell-based. In a few lines: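 Bovine aortic endothelial cells on fibronectin- or collagen-coated glass slides (5,000 cells/well) received biotinylated peptides in PBS/1% BSA for 1 h after 4 h, 48 h or ~6 h adherence, at 0.1M down to 0.0001M. Cells were fixed in 2% paraformaldehyde, then stained with ExtrAvidin-FITC overnight at 4 °C; fluorescence microscopy.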

A further experiment relates to bone and bone marrow. In words: In vivo biopanning with 12-mer peptide phage display library. Further details: species or system BALB/c mice. The following applies: for PERCENT FREQUENCY: phage eluted from bone and bone marrow; for PHAGE SEQUENCE FREQUENCY (number of times the sequence was found in a group of plaques): phage eluted from bone and bone marrow after repeated rounds. In a few lines: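 BALB/c mice (8 weeks) received 3.4×10^10 pfu of a 12-mer peptide phage library (pIII fusion, GGGS spacer) by intracardiac injection and were euthanized after 5 min. Bound phage eluted from bone and bone marrow was titered, amplified and re-injected at the same dose. Peptide frequency was compared with liver, kidney, lung, spleen and brain; sequences identified by phage DNA sequencing.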

For experiment [3], the system named is bovine aortic endothelial cells (BAEC). In words: Peptide binding to BAEC in culture (Avidin-FITC). Further details: key: ✓: Check marks indicate positive binding observed with FITC; −: a dash indicates a negative result. On the procedure: as §1
Bone marrow cells isolated from mouse femur were lifted with ethylenediaminetetraacetic acid (EDTA) and trypsin, resuspended, and allowed to attach on fibronectin-coated chamber slides for Avidin-FITC staining. […] The D1 cell is a multipotential mesenchymal stem-like line that was isolated from bone marrow and shown to have the characteristics of osteoprogenitor cells. This cell line has been well established and used successfully in several in vitro and in vivo studies in our laboratory. Peptide binding to human bone marrow endothelial cells (HBME) and bovine aortic endothelial cells (BAEC) in culture was also tested using the same procedure.

Experiment [4] has as its system Unicortical femoral defects. In words: Peptide-mediated osteogenesis in cortical bone defects (Example 8). It counts as in vivo, Fisher 344 rats. The following applies: for Histological appearance of repair tissue in the defect / Effectiveness at stimulating osteogenesis and cortical bone repair: 100 mM peptide in gelfoam, two weeks postoperatively; for Effectiveness at stimulating osteogenesis and cortical bone repair: versus gelfoam+PBS. The procedure, abridged:
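Peptides (100 mM in a 1.5 × 2 mm gelfoam carrier) were placed in 1.5 mm unicortical femoral defects in Fisher 344 rats, with the contralateral defect given gelfoam+PBS as control, and harvested at two weeks. L7 was also dosed at 1, 5 and 20 mM, and 20 mM L7 was followed over 5, 10, 15 and 20 days.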

Where [5] appears, read: biotinylated peptide, Avidin-FITC.
The mark [6] stands for this setting: BALB/c mouse decalcified femur cryosections, biotinylated peptide and Avidin-FITC.
Setting [7] is: BALB/c mouse femur cryosections, biotinylated peptide.
Where [8] appears, read: Swiss Webster mouse decalcified femur cryosections, 10 mM biotinylated peptide, 1 hour, Avidin-FITC.
Where [9] appears, read: Swiss Webster mouse femur cryosections, 10 mM biotinylated peptide.

Turning to “SER-GLY-HIS-GLN-LEU-LEU-LEU-ASN-LYS-MET-PRO-ASN-GLY-GLY-GLY-SER (SGHQLLLNKMPNGGGS; listed as Homo sapiens) [Peptide L13]”, in experiment [1], the “Localization of peptide binding: Bone/Marrow (tissue sections)” value is listed as “✓”; the “Binding to rib and long bone growth plate sections” value was “significant binding to rib and long bone growth plate”. In experiment [1] (setting [5]), the “Binding to bone and marrow in cryosections of mouse femur” value is “binds to areas of bone and marrow in cryosections of mouse femur”; the “Binding to fresh frozen sections of mouse rib” value is “binds to fresh frozen sections of mouse rib containing bone and marrow cells”. In addition, in experiment [2], the “Effect on adherent BAEC (Experiment 1)” value is “no effect, with results similar to PBS”. Besides, in the experiment on bone and bone marrow, the “PERCENT FREQUENCY” value is on record as 23.3% and the “PHAGE SEQUENCE FREQUENCY (number of times the sequence was found in a group of plaques)” value (“PHAGE SEQUENCE FREQUENCY” for short) is recorded as 7/30. Further, in experiment [3], the “Localization of peptide binding: BAEC” value is listed as “−”. Also, in experiment [4], the “Histological appearance of repair tissue in the defect” value (shortened to “Histological appearance”) is “a considerable amount of gelfoam remaining in the defects, with thinner and more loosely organized cortical bone”; the “Effectiveness at stimulating osteogenesis and cortical bone repair” value (shortened to “Effectiveness”) is recorded as “least effective for cortical bone repair”.

For the substance “ASN-SER-MET-ILE-ALA-HIS-ASN-LYS-THR-ARG-MET-HIS-GLY-GLY-GLY-SER (NSMIAHNKTRMHGGGS; listed as Homo sapiens) [Peptide L7]”, in experiment [1] (setting [6]), the “Fluorescence detected in femur sections incubated with peptide” value (“Fluorescence detected” for short) is “Fluorescence was detected”. Further, in experiment [1] (setting [7]), the “Cell shape preferentially recognized by peptide” value was “Cells that appeared morphologically elongated showed the highest fluorescence intensity” and the “Extent of marrow cells detected by fluorescence” value (from here on “Extent of marrow cells detected”) is “most of the cells were detectable but fluorescence intensity was variable”. Further, the “Localization of peptide binding: Bone/Marrow (tissue sections)” value in experiment [1] is “✓”. Also, the “Fluorescence detected” value in experiment [1] (setting [8]) is given as “Fluorescence was detected”. Further, in experiment [1] (setting [9]), the “Cell shape preferentially recognized by peptide” value is “Cells that appeared morphologically elongated showed the highest fluorescence intensity” and the “Extent of marrow cells detected” value is given as “most of the cells were detectable but fluorescence intensity was variable”. The “Effect on adherent BAEC (Experiment 1)” value in experiment [2] was “the cells lifted and formed clusters that stained intensely”. In the experiment on bone and bone marrow, the “PERCENT FREQUENCY” value worked out at 3.6% and the “PHAGE SEQUENCE FREQUENCY” value is 1/28. The “Localization of peptide binding: BAEC” value in experiment [3] is listed as “✓”. In experiment [4] (20 mM, 5, 10, 15, and 20 days), the “New bone formation versus corresponding controls at every time point” value was “new bone formation was greater in the defects treated with peptide compared with the corresponding controls” and the “Time course of cortical bone repair” value is “Cortical bone regeneration increased with time”. Moreover, in experiment [4], the “Histological appearance” value was “considerable amounts of cortical bone in the defects”; the “Effectiveness” value is “potentiate bone regeneration in vivo; also recorded: most effective at stimulating osteogenesis and cortical bone repair; also recorded: most effective peptides for osteogenesis and repair of cortical defects”. In experiment [4] (1, 5, and 20 mM), the “Amount of bone that regenerated versus controls without peptide” value was “increased with all the concentrations of peptide, even at 1 mM and 5 mM compared with the controls without peptide”; the “Effect of peptide concentration on cortical bone regeneration” value is given as “Osteogenesis was most pronounced with the highest concentration of peptide”.

For the substance “ASN-TYR-SER-HIS-LEU-ARG-VAL-LYS-LEU-PRO-THR-PRO-GLY-GLY-GLY-SER (NYSHLRVKLPTPGGGS; listed as Homo sapiens) [Peptide R1]”, in experiment [1] (setting [6]), the “Fluorescence detected” value is given as “Fluorescence was detected”. Besides, in experiment [1] (setting [7]), the “Cell shape preferentially recognized by peptide” value is “recognized the round cells preferentially” and the “Extent of marrow cells detected” value is “did not detect as many cells”. In addition, in experiment [1], the “Localization of peptide binding: Bone/Marrow (tissue sections)” value is listed as “✓”; the “Binding to rib and long bone growth plate sections” value is “significant binding to rib and long bone growth plate”. Besides, the “Fluorescence detected” value in experiment [1] (setting [8]) is on record as “Fluorescence was detected”. Further, in experiment [1] (setting [9]), the “Cell shape preferentially recognized by peptide” value is given as “recognized the round cells preferentially” and the “Extent of marrow cells detected” value is “did not detect as many cells”. Moreover, the “Effect on adherent BAEC (Experiment 1)” value in experiment [2] is “the cells had lifted completely and most of the cells disappeared from the surface of the slides, leaving a lot of cell debris”. Further, in the experiment on bone and bone marrow, the “PERCENT FREQUENCY” value amounted to 24.1% and the “PHAGE SEQUENCE FREQUENCY” value is reported as 7/29. Also, the “Localization of peptide binding: BAEC” value in experiment [3] is recorded as “✓”. Also, in experiment [4], the “Histological appearance” value is “considerable amounts of cortical bone in the defects”; the “Effectiveness” value is “potentiate bone regeneration in vivo; also recorded: most effective at stimulating osteogenesis and cortical bone repair; also recorded: most effective peptides for osteogenesis and repair of cortical defects”.
